Source: patent US20090099195A1 (ASTRAZENECA AB, priority 2007, published 2009)

Molecular target: T1, hP2X3 (human Purinergic P2X receptors subtype 3), clone A (Homo sapiens, UniProt P56373)
T1 sequence (P56373 1-397): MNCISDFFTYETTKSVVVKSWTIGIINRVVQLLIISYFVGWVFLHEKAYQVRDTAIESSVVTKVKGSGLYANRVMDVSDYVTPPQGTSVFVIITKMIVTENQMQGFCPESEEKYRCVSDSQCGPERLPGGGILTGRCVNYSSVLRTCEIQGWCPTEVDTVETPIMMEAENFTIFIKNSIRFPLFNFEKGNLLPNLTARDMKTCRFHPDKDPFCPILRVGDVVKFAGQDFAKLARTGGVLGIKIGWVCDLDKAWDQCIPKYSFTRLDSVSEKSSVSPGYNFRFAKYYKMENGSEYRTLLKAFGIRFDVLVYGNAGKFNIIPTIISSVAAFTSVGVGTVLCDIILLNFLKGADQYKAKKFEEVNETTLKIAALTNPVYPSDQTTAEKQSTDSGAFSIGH
Test: hP2X3 FLIPR calcium (Fluo-4) antagonist assay, clone A
Conditions: Human P2X3 FLIPR Clone A Mean IC50 (nM), RLE cells expressing hP2X3 clone A (AB016608); agonist 500 nM α,β-methylene-ATP

CCOc1ccc([C@@H](C)Nc2nc(N3CCN(CC)C(=O)C3)nc3c2CN(C(C)C)C3=O)cc1 [Example 361, (R)-4-(1-(4-ethoxyphenyl)ethylamino)-2-(4-ethyl-3-oxopiperazin-1-yl)-6-isopropyl-5H-pyrrolo[3,4-d]pyrimidin-7(6H)-one] was tested, and the IC50 was 327 nM.

For CC(C)N1Cc2c(nc(N3CCN(CC(F)(F)F)C(=O)C3)nc2N(C)Cc2cc3ccccc3cn2)C1=O [Example 364, 6-isopropyl-4-((isoquinolin-3-ylmethyl)(methyl)amino)-2-(3-oxo-4-(2,2,2-trifluoroethyl)piperazin-1-yl)-5H-pyrrolo[3,4-d]pyrimidin-7(6H)-one], the IC50 was 795 nM.

With CC(=O)N1CCN(c2nc3c(c(N(C)Cc4ccc5ccn(C)c5c4)n2)CN(C(C)C)C3=O)CC1 [Example 355, 2-(4-acetylpiperazin-1-yl)-6-(1-methylethyl)-4-{methyl[(1-methyl-1H-indol-6-yl)methyl]amino}-5,6-dihydro-7H-pyrrolo[3,4-d]pyrimidin-7-one] the IC50 was 5760 nM.

Molecule CC(=O)N1CCN(c2nc(NCc3ccc4c(c3)CC(C)O4)c3c(n2)C(=O)N(C(C)C)C3)CC1 (stereo not drawn) [Example 323, 2-(4-acetylpiperazin-1-yl)-6-isopropyl-4-((2-methyl-2,3-dihydrobenzofuran-5-yl)methylamino)-5H-pyrrolo[3,4-d]pyrimidin-7(6H)-one] has an IC50 of 410 nM.

CCOc1ccc(CN(C)c2nc(N3CCN(C(C)=O)CC3)nc3c2CN(C(C)C)C3=O)c(OC)c1 [Example 334, 2-(4-acetylpiperazin-1-yl)-4-((4-ethoxy-2-methoxybenzyl)(methyl)amino)-6-isopropyl-5H-pyrrolo[3,4-d]pyrimidin-7(6H)-one] showed an IC50 of 2970 nM.

In the case of COc1ccc(C2CCCN2c2nc(N3CCN(C(C)=O)CC3)nc3c2CN(C(C)C)C3=O)cc1 (stereo not drawn) [Example 299, 2-(4-acetylpiperazin-1-yl)-4-[2-(4-methoxyphenyl)pyrrolidin-1-yl]-6-(1-methylethyl)-5,6-dihydro-7H-pyrrolo[3,4-d]pyrimidin-7-one], the IC50 is reported as 1140 nM.

Molecule CCOc1cc(OC)ccc1CN(C)c1nc(N2CCN(C(C)=O)CC2)nc2c1CN(C(C)C)C2=O [Example 336, 2-(4-acetylpiperazin-1-yl)-4-((2-ethoxy-4-methoxybenzyl)(methyl)amino)-6-isopropyl-5H-pyrrolo[3,4-d]pyrimidin-7(6H)-one] has an IC50 of 1610 nM.

CC(=O)N1CCN(c2nc(NCc3ccc4c(ccn4C)c3)c3c(n2)C(=O)N(C(C)C)C3)CC1 [Example 354, 2-(4-acetylpiperazin-1-yl)-6-(1-methylethyl)-4-{[(1-methyl-1H-indol-5-yl)methyl]amino}-5,6-dihydro-7H-pyrrolo[3,4-d]pyrimidin-7-one] was tested, and the IC50 was 494 nM.

In the case of CC(=O)N1CCN(c2nc(NCc3ccc4ccn(C)c4c3)c3c(n2)C(=O)N(C(C)C)C3)CC1 [Example 356, 2-(4-acetylpiperazin-1-yl)-6-(1-methylethyl)-4-{[(1-methyl-1H-indol-6-yl)methyl]amino}-5,6-dihydro-7H-pyrrolo[3,4-d]pyrimidin-7-one], the IC50 is reported as 1060 nM.

With CC(=O)N1CCN(c2nc(N[C@H](C)c3ccc(OCC4CC4)c(F)c3)c3c(n2)C(=O)N(C(C)C)C3)CC1 [Example 322, (R)-2-(4-acetylpiperazin-1-yl)-4-(1-(4-(cyclopropylmethoxy)-3-fluorophenyl)ethylamino)-6-isopropyl-5H-pyrrolo[3,4-d]pyrimidin-7(6H)-one] the IC50 was 1900 nM.

CC(=O)N1CCN(c2nc3c(c(N(C)Cc4cnn(-c5ccc(F)cc5)c4)n2)CN(C(C)C)C3=O)CC1 [Example 339, 2-(4-acetylpiperazin-1-yl)-4-[{[1-(4-fluorophenyl)-1H-pyrazol-4-yl]methyl}(methyl)amino]-6-(1-methylethyl)-5,6-dihydro-7H-pyrrolo[3,4-d]pyrimidin-7-one] gave an IC50 of 2280 nM.

Work on CC(=O)N1CCN(c2nc(N[C@H](C)c3ccc4c(c3)OC(F)(F)O4)c3c(n2)C(=O)N(C(C)C)C3)CC1 [Example 359, (R)-2-(4-acetylpiperazin-1-yl)-4-(1-(2,2-difluorobenzo[d][1,3]dioxol-5-yl)ethylamino)-6-isopropyl-5H-pyrrolo[3,4-d]pyrimidin-7(6H)-one] yielded an IC50 of 511 nM.

For CCOc1ccc([C@@H](C)Nc2nc(N3CCN(CC(F)(F)F)C(=O)C3)nc3c2CN(C(C)C)C3=O)cc1 [Example 363, (R)-4-(1-(4-ethoxyphenyl)ethylamino)-6-isopropyl-2-(3-oxo-4-(2,2,2-trifluoroethyl)piperazin-1-yl)-5H-pyrrolo[3,4-d]pyrimidin-7(6H)-one], the IC50 was 574 nM.

For CC(=O)N1CCN(c2nc(N[C@H](C)c3ccc(CN(C)C)cc3)c3c(n2)C(=O)N(C(C)C)C3)CC1 [Example 358, (R)-2-(4-acetylpiperazin-1-yl)-4-(1-(4-((dimethylamino)methyl)phenyl)ethylamino)-6-isopropyl-5H-pyrrolo[3,4-d]pyrimidin-7(6H)-one], the IC50 was > 30000 nM.

In the case of CCOc1ccc([C@@H](C)Nc2nc(N3CCN(C(C)=O)CC3)nc3c2CN(C(C)C)C3=O)c(OCC)c1 [Example 357, (R)-2-(4-acetylpiperazin-1-yl)-4-(1-(2,4-diethoxyphenyl)ethylamino)-6-isopropyl-5H-pyrrolo[3,4-d]pyrimidin-7(6H)-one], the IC50 is reported as 163 nM.

CCCOc1ccc([C@@H](C)Nc2nc(N3CCN(C(C)=O)CC3)nc3c2CN(C(C)C)C3=O)cc1F [Example 193, (R)-2-(4-acetylpiperazin-1-yl)-4-(1-(3-fluoro-4-propoxyphenyl)ethylamino)-6-isopropyl-5H-pyrrolo[3,4-d]pyrimidin-7(6H)-one] gave an IC50 of 235 nM.

CC(=O)N1CCN(c2nc(NC(C)c3nc4ccccc4s3)c3c(n2)C(=O)N(C(C)C)C3)CC1 (stereo not drawn) [Example 236, 2-(4-acetylpiperazin-1-yl)-4-(1-(benzo[d]thiazol-2-yl)ethylamino)-6-isopropyl-5H-pyrrolo[3,4-d]pyrimidin-7(6H)-one] gave an IC50 of 564 nM.

Work on CCOc1ccc([C@H]2CCCN2c2nc(N3CCN(C(C)=O)CC3)nc3c2CN(C(C)C)C3=O)cc1F [Example 300, 2-(4-acetylpiperazin-1-yl)-4-[(2R)-2-(4-ethoxy-3-fluorophenyl)pyrrolidin-1-yl]-6-(1-methylethyl)-5,6-dihydro-7H-pyrrolo[3,4-d]pyrimidin-7-one] yielded an IC50 of 192 nM.

CC(=O)N1CCN(c2nc(NC(C)c3ccc4c(c3)CC(C)O4)c3c(n2)C(=O)N(C(C)C)C3)CC1 (stereo not drawn) [Example 324, 2-(4-acetylpiperazin-1-yl)-6-isopropyl-4-(1-(2-methyl-2,3-dihydrobenzofuran-5-yl)ethylamino)-5H-pyrrolo[3,4-d]pyrimidin-7(6H)-one] gave an IC50 of 179 nM.

With CCN1CCN(c2nc3c(c(N(C)Cc4cc5ccccc5cn4)n2)CN(C(C)C)C3=O)CC1=O [Example 362, 2-(4-ethyl-3-oxopiperazin-1-yl)-6-isopropyl-4-((isoquinolin-3-ylmethyl)(methyl)amino)-5H-pyrrolo[3,4-d]pyrimidin-7(6H)-one] the IC50 was 356 nM.

Molecule CCOc1ncc([C@@H](C)Nc2nc(N3CCN(C(C)=O)CC3)nc3c2CN(C(C)C)C3=O)cc1C [Example 331, (R)-2-(4-acetylpiperazin-1-yl)-4-(1-(6-ethoxy-5-methylpyridin-3-yl)ethylamino)-6-isopropyl-5H-pyrrolo[3,4-d]pyrimidin-7(6H)-one] has an IC50 of 195 nM.

In the case of CC(=O)N1CCN(c2nc3c(c(N(C)Cc4cc5ccc(C)cc5cn4)n2)CN(C(C)C)C3=O)CC1 [Example 353, 2-(4-acetylpiperazin-1-yl)-6-isopropyl-4-(methyl((7-methylisoquinolin-3-yl)methyl)amino)-5H-pyrrolo[3,4-d]pyrimidin-7(6H)-one], the IC50 is reported as 61.1 nM.

In the case of CC(=O)N1CCN(c2nc3c(c(N(C)Cc4cc5cc(C)ccc5cn4)n2)CN(C(C)C)C3=O)CC1 [Example 342, 2-(4-acetylpiperazin-1-yl)-6-isopropyl-4-(methyl((6-methylisoquinolin-3-yl)methyl)amino)-5H-pyrrolo[3,4-d]pyrimidin-7(6H)-one], the IC50 is reported as 1230 nM.

Work on COCc1ccc([C@@H](C)Nc2nc(N3CCN(C(C)=O)CC3)nc3c2CN(C(C)C)C3=O)cc1F [Example 338, 2-(4-acetylpiperazin-1-yl)-4-({(1R)-1-[3-fluoro-4-(methoxymethyl)phenyl]ethyl}amino)-6-(1-methylethyl)-5,6-dihydro-7H-pyrrolo[3,4-d]pyrimidin-7-one] yielded an IC50 of 2640 nM.

CC(=O)N1CCN(c2nc3c(c(N(C)Cc4cc5ccc(F)cc5cn4)n2)CN(C(C)C)C3=O)CC1 [Example 350, 2-(4-acetylpiperazin-1-yl)-4-(((7-fluoroisoquinolin-3-yl)methyl)(methyl)amino)-6-isopropyl-5H-pyrrolo[3,4-d]pyrimidin-7(6H)-one] showed an IC50 of 29.9 nM.

With CCOc1ncc([C@@H](C)Nc2nc(N3CCN(C(C)=O)CC3)nc3c2CN(C(C)C)C3=O)cc1Cl [Example 194, (R)-2-(4-acetylpiperazin-1-yl)-4-(1-(5-chloro-6-ethoxypyridin-3-yl)ethylamino)-6-isopropyl-5H-pyrrolo[3,4-d]pyrimidin-7(6H)-one] the IC50 was 283 nM.

CC(C)N1Cc2c(NC(C)(C)Cc3ccc(F)cc3)nc(N3CCn4ccnc4C3)nc2C1=O [Example 340, 2-(5,6-dihydroimidazo[1,2-a]pyrazin-7(8H)-yl)-4-{[2-(4-fluorophenyl)-1,1-dimethylethyl]amino}-6-(1-methylethyl)-5,6-dihydro-7H-pyrrolo[3,4-d]pyrimidin-7-one] showed an IC50 of 2710 nM.
